Experimental data taken from patent US9527869B2, “Indolizine derivatives as phoshoinositide 3-kinases inhibitors” (CHIESI FARMACEUTICI S.P.A., priority 2014, dated 2016).
pIC50: −log10 of the molar value.

What was measured:
Format in all cases: biochemical
[1] = target: T1, PI3Kβ (Homo sapiens, UniProt P42338); assay: In vitro determination of the PI3K enzyme inhibitory activity in the cell free assay (ADP-Glo Kinase Assay), PI3Kβ; conditions: ATP 100 μM, read-out: PI3K beta inhibition
T1 construct: purchased Millipore Ltd (Billerica, Mass.)
T1 sequence (P42338 whole entry): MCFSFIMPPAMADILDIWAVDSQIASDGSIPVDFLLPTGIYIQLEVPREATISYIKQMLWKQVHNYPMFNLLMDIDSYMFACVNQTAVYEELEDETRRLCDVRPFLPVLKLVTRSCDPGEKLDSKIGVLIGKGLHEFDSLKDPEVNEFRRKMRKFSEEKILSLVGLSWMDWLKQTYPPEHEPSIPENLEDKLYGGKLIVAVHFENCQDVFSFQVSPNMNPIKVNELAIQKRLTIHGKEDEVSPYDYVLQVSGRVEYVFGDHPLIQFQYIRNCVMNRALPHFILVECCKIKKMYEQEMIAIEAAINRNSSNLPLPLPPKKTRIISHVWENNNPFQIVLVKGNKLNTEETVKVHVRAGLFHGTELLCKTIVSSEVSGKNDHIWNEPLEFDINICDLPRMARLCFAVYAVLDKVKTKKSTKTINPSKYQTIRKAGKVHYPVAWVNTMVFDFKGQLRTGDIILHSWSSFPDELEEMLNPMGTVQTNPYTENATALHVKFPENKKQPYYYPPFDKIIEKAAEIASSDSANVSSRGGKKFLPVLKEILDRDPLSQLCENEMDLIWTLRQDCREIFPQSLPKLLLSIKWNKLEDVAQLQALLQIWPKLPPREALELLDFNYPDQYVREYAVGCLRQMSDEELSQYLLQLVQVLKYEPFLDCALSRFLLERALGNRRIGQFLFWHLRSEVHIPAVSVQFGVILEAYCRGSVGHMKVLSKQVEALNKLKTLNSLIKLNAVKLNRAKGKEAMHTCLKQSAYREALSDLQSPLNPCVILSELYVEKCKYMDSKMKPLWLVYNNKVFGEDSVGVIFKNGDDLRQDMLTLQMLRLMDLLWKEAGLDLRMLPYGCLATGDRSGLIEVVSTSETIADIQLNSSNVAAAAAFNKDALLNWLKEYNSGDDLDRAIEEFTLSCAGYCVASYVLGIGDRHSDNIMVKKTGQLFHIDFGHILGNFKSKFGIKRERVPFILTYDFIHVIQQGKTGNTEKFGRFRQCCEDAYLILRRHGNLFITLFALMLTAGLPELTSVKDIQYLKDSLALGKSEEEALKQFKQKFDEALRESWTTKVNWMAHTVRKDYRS
T1 sequence (P27986 whole entry partner): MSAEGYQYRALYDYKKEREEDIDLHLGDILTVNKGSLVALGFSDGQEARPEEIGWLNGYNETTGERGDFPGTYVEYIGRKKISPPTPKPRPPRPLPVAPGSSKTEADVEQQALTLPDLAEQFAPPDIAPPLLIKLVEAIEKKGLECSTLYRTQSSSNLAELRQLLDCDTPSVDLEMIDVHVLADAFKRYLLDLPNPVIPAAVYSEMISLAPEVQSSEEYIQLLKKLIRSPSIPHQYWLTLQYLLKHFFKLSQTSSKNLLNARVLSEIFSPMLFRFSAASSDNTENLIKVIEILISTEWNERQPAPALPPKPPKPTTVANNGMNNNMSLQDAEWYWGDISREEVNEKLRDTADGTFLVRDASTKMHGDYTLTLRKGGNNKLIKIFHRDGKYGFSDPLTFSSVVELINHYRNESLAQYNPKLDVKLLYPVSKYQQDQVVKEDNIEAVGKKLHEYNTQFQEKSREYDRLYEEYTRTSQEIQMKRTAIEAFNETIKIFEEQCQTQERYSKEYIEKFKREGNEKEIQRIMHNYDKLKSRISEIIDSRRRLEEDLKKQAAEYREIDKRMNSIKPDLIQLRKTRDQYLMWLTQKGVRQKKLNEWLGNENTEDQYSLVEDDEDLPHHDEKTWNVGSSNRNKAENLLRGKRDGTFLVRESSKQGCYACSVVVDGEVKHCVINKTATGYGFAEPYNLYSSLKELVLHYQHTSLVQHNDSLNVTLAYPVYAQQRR
How it was run: (§1)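 IC50 values came from four-parameter logistic fitting of ADP-Glo luminescence after 60 min kinase reactions at room temperature. ATP (final) was set per isoform: α 50 μM, β 100 μM, γ 30 μM, δ 80 μM. Substrates were phosphatidylinositol and phosphatidylserine (50 μM in 2× Tris pH 7.5 buffer), with human recombinant enzymes.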

[2] = target: T2, PI3Kα (Homo sapiens, UniProt P42336); assay: In vitro determination of the PI3K enzyme inhibitory activity in the cell free assay (ADP-Glo Kinase Assay), PI3Kα; conditions: ATP 50 μM, read-out: PI3K alpha inhibition
T2 construct: purchased Millipore Ltd (Billerica, Mass.)
T2 sequence (P42336 whole entry): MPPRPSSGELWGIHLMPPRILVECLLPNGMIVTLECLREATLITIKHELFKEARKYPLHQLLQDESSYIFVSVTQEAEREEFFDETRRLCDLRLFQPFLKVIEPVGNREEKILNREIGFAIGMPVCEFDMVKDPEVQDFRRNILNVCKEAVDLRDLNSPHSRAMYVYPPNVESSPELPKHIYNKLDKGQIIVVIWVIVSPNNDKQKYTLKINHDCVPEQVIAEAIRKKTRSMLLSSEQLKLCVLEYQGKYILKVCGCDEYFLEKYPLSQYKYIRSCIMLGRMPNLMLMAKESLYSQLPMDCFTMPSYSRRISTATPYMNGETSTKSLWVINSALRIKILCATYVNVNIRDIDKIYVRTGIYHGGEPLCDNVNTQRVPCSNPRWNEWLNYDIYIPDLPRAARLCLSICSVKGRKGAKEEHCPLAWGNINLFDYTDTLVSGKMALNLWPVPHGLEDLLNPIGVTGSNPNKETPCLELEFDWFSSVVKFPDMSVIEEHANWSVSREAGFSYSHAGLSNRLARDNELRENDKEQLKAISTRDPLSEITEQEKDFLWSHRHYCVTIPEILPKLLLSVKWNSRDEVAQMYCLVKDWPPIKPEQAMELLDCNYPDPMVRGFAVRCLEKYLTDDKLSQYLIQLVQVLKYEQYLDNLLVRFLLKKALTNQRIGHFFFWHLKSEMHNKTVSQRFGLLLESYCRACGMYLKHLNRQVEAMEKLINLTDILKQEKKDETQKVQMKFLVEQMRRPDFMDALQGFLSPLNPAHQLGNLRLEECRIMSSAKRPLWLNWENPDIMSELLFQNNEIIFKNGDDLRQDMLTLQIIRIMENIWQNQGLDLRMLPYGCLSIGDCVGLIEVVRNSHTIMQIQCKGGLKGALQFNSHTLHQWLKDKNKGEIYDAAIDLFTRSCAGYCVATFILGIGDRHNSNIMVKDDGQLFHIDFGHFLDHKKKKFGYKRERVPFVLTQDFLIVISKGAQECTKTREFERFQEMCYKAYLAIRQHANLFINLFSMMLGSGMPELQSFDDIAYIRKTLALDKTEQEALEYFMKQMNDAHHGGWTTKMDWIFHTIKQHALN
T2 sequence (P27986 whole entry partner): as the sequence (P27986 whole entry partner) above
How it was run: as §1

[3] = target: T3, PI3Kδ (Homo sapiens, UniProt O00329); assay: In vitro determination of the PI3K enzyme inhibitory activity in the cell free assay (ADP-Glo Kinase Assay), PI3Kδ; conditions: ATP 80 μM, read-out: PI3K delta inhibition
T3 construct: purchased Millipore Ltd (Billerica, Mass.)
T3 sequence (O00329 whole entry): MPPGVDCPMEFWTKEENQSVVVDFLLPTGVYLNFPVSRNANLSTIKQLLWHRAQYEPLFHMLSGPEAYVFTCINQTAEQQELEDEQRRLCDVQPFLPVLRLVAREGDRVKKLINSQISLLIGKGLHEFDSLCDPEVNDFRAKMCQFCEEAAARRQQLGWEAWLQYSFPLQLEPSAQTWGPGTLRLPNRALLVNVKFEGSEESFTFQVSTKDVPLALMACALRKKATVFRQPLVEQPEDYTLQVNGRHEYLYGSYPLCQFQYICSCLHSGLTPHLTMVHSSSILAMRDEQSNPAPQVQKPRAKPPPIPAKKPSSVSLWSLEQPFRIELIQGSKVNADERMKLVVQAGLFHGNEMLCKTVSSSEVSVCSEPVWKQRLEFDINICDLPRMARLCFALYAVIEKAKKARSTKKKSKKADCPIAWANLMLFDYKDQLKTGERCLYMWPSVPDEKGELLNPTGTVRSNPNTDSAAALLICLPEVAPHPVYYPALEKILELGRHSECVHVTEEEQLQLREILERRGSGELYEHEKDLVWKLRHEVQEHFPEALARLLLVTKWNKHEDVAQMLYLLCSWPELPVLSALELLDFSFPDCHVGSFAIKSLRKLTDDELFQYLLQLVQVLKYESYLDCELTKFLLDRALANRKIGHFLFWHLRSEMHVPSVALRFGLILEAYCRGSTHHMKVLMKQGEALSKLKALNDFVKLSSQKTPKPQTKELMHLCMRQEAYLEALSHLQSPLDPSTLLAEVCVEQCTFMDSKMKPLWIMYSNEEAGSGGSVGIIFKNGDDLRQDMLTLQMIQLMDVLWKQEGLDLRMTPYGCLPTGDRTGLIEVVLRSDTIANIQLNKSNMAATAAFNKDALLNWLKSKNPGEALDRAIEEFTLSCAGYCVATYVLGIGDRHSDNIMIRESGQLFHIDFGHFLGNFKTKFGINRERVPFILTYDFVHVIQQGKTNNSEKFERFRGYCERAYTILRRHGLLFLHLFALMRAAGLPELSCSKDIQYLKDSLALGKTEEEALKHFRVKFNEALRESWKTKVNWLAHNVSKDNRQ
T3 sequence (P27986 whole entry partner): as the sequence (P27986 whole entry partner) above
How it was run: as §1

[4] = target: T4, PI3Kγ (Homo sapiens, UniProt P48736); assay: In vitro determination of the PI3K enzyme inhibitory activity in the cell free assay (ADP-Glo Kinase Assay), PI3Kγ; conditions: ATP 30 μM, read-out: PI3K gamma inhibition
T4 construct: purchased Millipore Ltd (Billerica, Mass.)
T4 sequence (P48736 whole entry): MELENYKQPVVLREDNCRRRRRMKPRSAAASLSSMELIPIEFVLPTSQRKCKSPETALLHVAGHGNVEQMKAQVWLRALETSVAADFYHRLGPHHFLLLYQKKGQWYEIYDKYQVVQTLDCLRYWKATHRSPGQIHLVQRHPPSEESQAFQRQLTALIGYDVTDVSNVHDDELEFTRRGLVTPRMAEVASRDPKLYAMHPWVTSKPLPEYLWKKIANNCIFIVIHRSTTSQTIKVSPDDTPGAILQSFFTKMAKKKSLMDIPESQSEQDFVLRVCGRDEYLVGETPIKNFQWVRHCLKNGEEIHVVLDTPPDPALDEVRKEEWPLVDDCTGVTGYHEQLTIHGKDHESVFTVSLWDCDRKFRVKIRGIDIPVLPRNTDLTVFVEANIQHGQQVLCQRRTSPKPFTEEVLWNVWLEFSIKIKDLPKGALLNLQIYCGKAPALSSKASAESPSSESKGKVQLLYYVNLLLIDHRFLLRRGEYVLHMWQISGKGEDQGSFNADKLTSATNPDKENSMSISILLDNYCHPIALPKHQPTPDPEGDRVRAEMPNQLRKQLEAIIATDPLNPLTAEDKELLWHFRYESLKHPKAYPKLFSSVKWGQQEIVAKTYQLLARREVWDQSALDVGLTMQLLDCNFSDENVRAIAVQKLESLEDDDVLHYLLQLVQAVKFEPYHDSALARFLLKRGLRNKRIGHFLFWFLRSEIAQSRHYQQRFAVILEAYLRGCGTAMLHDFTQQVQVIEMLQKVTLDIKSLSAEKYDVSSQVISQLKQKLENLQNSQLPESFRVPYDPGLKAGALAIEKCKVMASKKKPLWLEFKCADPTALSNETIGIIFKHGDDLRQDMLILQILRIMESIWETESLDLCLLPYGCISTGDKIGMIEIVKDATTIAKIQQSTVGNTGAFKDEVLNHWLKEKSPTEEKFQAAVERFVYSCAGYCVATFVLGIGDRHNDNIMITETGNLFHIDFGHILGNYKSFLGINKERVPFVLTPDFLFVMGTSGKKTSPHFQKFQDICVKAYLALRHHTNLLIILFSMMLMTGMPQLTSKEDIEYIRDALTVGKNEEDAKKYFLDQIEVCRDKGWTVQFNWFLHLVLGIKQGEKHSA
How it was run: as §1

SMILES	pIC50 [1]	pIC50 [2]	pIC50 [3]	pIC50 [4]
Cc1ccccc1-c1c(Cn2cnc3c(N)ncnc32)cc2ccccn12 [Example 7, 9-{[3-(2-methylphenyl)indolizin-2-yl]methyl}-9H-purin-6-amine]	< 6.00	< 6.00	< 6.00	< 6.00
CC(=O)Nc1cccc(-c2nn(C(C)c3cc4ccccn4c3-c3ccccn3)c3ncnc(N)c23)c1 (centres unmarked) [Example 63, N-[3-(4-amino-1-{1-[3-(pyridin-2-yl)indolizin-2-yl]ethyl}-1H-pyrazolo[3,4-d]pyrimidin-3-yl)phenyl]acetamide]	< 6.00	< 6.00	< 6.00	< 6.00
CC(c1cc2ccccn2c1-c1ccn(CCN2CCN(C)CC2)n1)n1nc(-c2cc(O)cc(F)c2)c2c(N)ncnc21 (centres unmarked) [Example 148, 3-{4-amino-1-[1-(3-{1-[2-(4-methylpiperazin-1-yl)ethyl]-1H-pyrazol-3-yl}indolizin-2-yl)-ethyl]-1H-pyrazolo[3,4-d]pyrimidin-3-yl}-5-fluorophenol]	6.00 to 8.00	6.00 to 8.00	> 8.00	6.00 to 8.00
Cc1ccccc1-c1c(Cn2cnc(N)c3ncnc2-3)cc2ccccn12 [Example 8, 3-{[3-(2-methylphenyl)indolizin-2-yl]methyl}-3H-purin-6-amine]	< 6.00	< 6.00	< 6.00	< 6.00
Nc1ncnc2c1ncn2Cc1cn2ccccc2c1-c1ccccc1 [Example 10, 9-[(1-phenylindolizin-2-yl)methyl]-9H-purin-6-amine]	< 6.00	< 6.00	< 6.00	< 6.00
CC(c1cc2cc(Cl)ccn2c1-c1ccccn1)n1nc(-c2cc(O)cc(F)c2)c2c(N)ncnc21 (centres unmarked) [Example 104, 3-(4-amino-1-{1-[7-chloro-3-(pyridin-2-yl)indolizin-2-yl]ethyl}-1H-pyrazolo[3,4-d]pyrimidin-3-yl)-5-fluorophenol]	6.00 to 8.00	6.00 to 8.00	> 8.00	6.00 to 8.00
CC(Nc1ncnc(N)c1C#N)c1cc2ccccn2c1-c1cnccn1 (centres unmarked) [Example 35, 4-amino-6-({1-[3-(pyrazin-2-yl)indolizin-2-yl]ethyl}amino)pyrimidine-5-carbonitrile]	6.00 to 8.00	< 6.00	6.00 to 8.00	< 6.00
CCCC#Cc1c(C(C)Nc2ncnc(N)c2C#N)cc2ccccn12 (centres unmarked) [Example 43, 4-amino-6-({1-[3-(pent-1-yn-1-yl)indolizin-2-yl]ethyl}amino)pyrimidine-5-carbonitrile]	6.00 to 8.00	< 6.00	6.00 to 8.00	< 6.00
CC(c1cc2ccccn2c1-c1ccccn1)n1nc(-c2cc(O)cc(C(F)(F)F)c2)c2c(N)ncnc21 (centres unmarked) [Example 65, 3-(4-amino-1-{1-[3-(pyridin-2-yl)indolizin-2-yl]ethyl}-1H-pyrazolo[3,4-d]pyrimidin-3-yl)-5-(trifluoromethyl)phenol]	6.00 to 8.00	< 6.00	> 8.00	6.00 to 8.00
CC(c1cc2ccccn2c1-c1ccc(=O)n(CCN2CCOCC2)c1)n1nc(-c2cc(O)cc(F)c2)c2c(N)ncnc21 (centres unmarked) [Example 120, 5-(2-{1-[4-amino-3-(3-fluoro-5-hydroxyphenyl)-1H-pyrazolo[3,4-d]pyrimidin-1-yl]ethyl}-indolizin-3-yl)-1-[2-(morpholin-4-yl)ethyl]-1,2-dihydropyridin-2-one]	< 6.00	< 6.00	> 8.00	6.00 to 8.00
CC(c1cc2ccccn2c1-c1ccc(=O)n(CCN2CCCC2)n1)n1nc(-c2cc(O)cc(F)c2)c2c(N)ncnc21 (centres unmarked) [Example 134, 6-(2-{1-[4-amino-3-(3-fluoro-5-hydroxyphenyl)-1H-pyrazolo[3,4-d]pyrimidin-1-yl]-ethyl}indolizin-3-yl)-2-[2-(pyrrolidin-1-yl)-ethyl]-2,3-dihydropyridazin-3-one]	6.00 to 8.00	< 6.00	> 8.00	< 6.00
CC(Nc1ncnc(N)c1C#N)c1cc2ccccn2c1-c1cccs1 (centres unmarked) [Example 37, 4-amino-6-({1-[3-(thiophen-2-yl)indolizin-2-yl]ethyl}amino)pyrimidine-5-carbonitrile]	< 6.00	< 6.00	6.00 to 8.00	< 6.00
Nc1ncnc2c1ncn2Cc1cn2ccccc2c1-c1cccc(F)c1 [Example 11, 9-{[1-(3-fluorophenyl)indolizin-2-yl]methyl}-9H-purin-6-amine]	< 6.00	< 6.00	< 6.00	< 6.00
Nc1nccnc1C(=O)NCc1cn2ccccc2c1-c1ccccn1 [Example 55, 3-amino-N-{[1-(pyridin-2-yl)indolizin-2-yl]methyl}pyrazine-2-carboxamide]	< 6.00	< 6.00	< 6.00	< 6.00
CC(c1cc2ccccn2c1N1CCCC1=O)n1nc(-c2cc(O)cc(F)c2)c2c(N)ncnc21 (centres unmarked) [Example 95, 1-(2-{1-[4-amino-3-(3-fluoro-5-hydroxyphenyl)-1H-pyrazolo[3,4-d]pyrimidin-1-yl]ethyl}indolizin-3-yl)pyrrolidin-2-one]	6.00 to 8.00	6.00 to 8.00	> 8.00	6.00 to 8.00
CC(c1cc2ccccn2c1-c1ccc(CN(C)C)cn1)n1nc(-c2cc(O)cc(F)c2)c2c(N)ncnc21 (centres unmarked) [Example 109, 3-{4-amino-1-[1-(3-{5-[(dimethylamino)-methyl]pyridin-2-yl}indolizin-2-yl)ethyl]-1H-pyrazolo[3,4-d]pyrimidin-3-yl}-5-fluorophenol]	6.00 to 8.00	< 6.00	6.00 to 8.00	< 6.00
CC(c1cc2ccccn2c1-c1ccc(CN2CCOCC2)cn1)n1nc(-c2cc(O)cc(F)c2)c2c(N)ncnc21 (centres unmarked) [Example 108, 3-[4-amino-1-(1-{3-[5-(morpholin-4-ylmethyl)pyridin-2-yl]indolizin-2-yl}ethyl)-1H-pyrazolo[3,4-d]pyrimidin-3-yl]-5-fluorophenol]	6.00 to 8.00	< 6.00	> 8.00	< 6.00
CC(c1cc2ccccn2c1-c1ccccn1)n1nc(-c2cccc(NS(C)(=O)=O)c2)c2c(N)ncnc21 (centres unmarked) [Example 67, N-[3-(4-amino-1-{1-[3-(pyridin-2-yl)indolizin-2-yl]ethyl}-1H-pyrazolo[3,4-d]pyrimidin-3-yl)phenyl]methanesulfonamide]	< 6.00	< 6.00	6.00 to 8.00	< 6.00
CC(c1c(C#N)c2ccccn2c1-c1cccc(CN(C)C)c1)n1nc(-c2cc(O)cc(F)c2)c2c(N)ncnc21 (centres unmarked) [Example 127, 2-{1-[4-amino-3-(3-fluoro-5-hydroxyphenyl)-1H-pyrazolo[3,4-d]pyrimidin-1-yl]-ethyl}-3-{3-[(dimethylamino)-methyl]phenyl}indolizine-1-carbonitrile]	6.00 to 8.00	< 6.00	> 8.00	< 6.00
CC(c1cc2cccnn2c1-c1ccccn1)n1nc(-c2cc(O)cc(F)c2)c2c(N)ncnc21 (centres unmarked) [Example 96, 3-(4-amino-1-{1-[7-(pyridin-2-yl)pyrrolo[1,2-b]pyridazin-6-yl]ethyl}-1H-pyrazolo[3,4-d]pyrimidin-3-yl)-5-fluorophenol]	6.00 to 8.00	< 6.00	> 8.00	< 6.00
C[C@H](c1cc2ccccn2c1-c1cccc(CN(C)C)c1)n1nc(-c2cc(O)cc(F)c2)c2c(N)ncnc21 (single isomer, unassigned) [Example 93a, 3-{4-amino-1-[1-(3-{3-[(dimethylamino)methyl]phenyl}indolizin-2-yl)ethyl]-1H-pyrazolo[3,4-d]pyrimidin-3-yl}-5-fluorophenol]	6.00 to 8.00	6.00 to 8.00	> 8.00	< 6.00
CC(c1cc2ccccn2c1-c1ccn(CCN2CCOCC2)n1)n1nc(-c2cc(O)cc(F)c2)c2c(N)ncnc21 (centres unmarked) [Example 150, 3-{4-amino-1-[1-(3-{1-[2-(morpholin-4-yl)ethyl]-1H-pyrazol-3-yl}indolizin-2-yl)ethyl]-1H-pyrazolo-[3,4-d]pyrimidin-3-yl}-5-fluorophenol]	6.00 to 8.00	< 6.00	> 8.00	6.00 to 8.00
CC(c1cc2ccccn2c1-c1ccccn1)n1nc(-c2cccc(F)c2)c2c(N)ncnc21 (centres unmarked) [Example 66, 3-(3-fluorophenyl)-1-{1-[3-(pyridin-2-yl)indolizin-2-yl]ethyl}-1H-pyrazolo[3,4-d]pyrimidin-4-amine]	6.00 to 8.00	< 6.00	6.00 to 8.00	< 6.00
CC(Nc1ncnc(N)c1C(F)(F)F)c1cc2ccccn2c1-c1ccccn1 (centres unmarked) [Example 49, 4-N-{1-[3-(pyridin-2-yl)indolizin-2-yl]ethyl}-5-(trifluoromethyl)pyrimidine-4,6-diamine]	< 6.00	< 6.00	6.00 to 8.00	< 6.00
Fc1ccccc1-c1c(CNc2ncnc3[nH]cnc23)cc2ccccn12 [Example 16, N-{[3-(2-fluorophenyl)indolizin-2-yl]methyl}-9H-purin-6-amine]	< 6.00	< 6.00	< 6.00	< 6.00
C[C@H](c1cc2ccccn2c1-c1ccc(CN2CCN(C)CC2)cn1)n1nc(-c2cc(O)cc(F)c2)c2c(N)ncnc21 (single isomer, unassigned) [Example 114a, 3-{4-amino-1-[1-(3-{5-[(4-methylpiperazin-1-yl)methyl]pyridin-2-yl}indolizin-2-yl)ethyl]-1H-pyrazolo[3,4-d]pyrimidin-3-yl}-5-fluorophenol]	6.00 to 8.00	6.00 to 8.00	> 8.00	6.00 to 8.00
